# Reference: ChEMBL document CHEMBL5465560, “Selectivity Literature for EUbOPEN Chemogenomic Library” (2024)
# Assays:
# [1] = biological target: Cyclin-dependent kinase 7 (Homo sapiens, UniProt P50613); assay: Selectivity interaction (Ambit KINOMEscan and KiNATiv profiling in Jurkat cells) EUB0000090b CDK7; format: cell-based; details: at 1 µM
# [2] = biological target: Macrophage colony-stimulating factor 1 receptor (Homo sapiens) (UniProt P07333); assay: Selectivity interaction (KinomeScan (DiscoverX)) EUB0000655a CSF1R; details: at 10 µM
# [3] = biological target: T1, Phosphorylase b kinase gamma catalytic chain, liver/testis isoform (Homo sapiens) (UniProt P15735); assay: Selectivity interaction (KinomeScan (DiscoverX)) EUB0000607a PHKG2; details: at 10 µM
# T1 sequence (whole entry): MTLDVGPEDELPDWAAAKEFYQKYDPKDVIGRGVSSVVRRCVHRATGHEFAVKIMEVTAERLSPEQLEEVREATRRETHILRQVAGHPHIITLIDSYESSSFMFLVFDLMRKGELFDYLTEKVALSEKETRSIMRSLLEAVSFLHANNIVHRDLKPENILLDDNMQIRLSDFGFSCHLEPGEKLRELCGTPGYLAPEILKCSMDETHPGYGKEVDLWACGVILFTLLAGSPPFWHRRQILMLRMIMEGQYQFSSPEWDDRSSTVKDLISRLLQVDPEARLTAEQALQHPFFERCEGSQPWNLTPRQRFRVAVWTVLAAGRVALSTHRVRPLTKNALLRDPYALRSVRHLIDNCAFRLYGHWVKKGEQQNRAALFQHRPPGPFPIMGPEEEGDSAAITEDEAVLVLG
# [4] = biological target: T2, Tyrosine-protein kinase ZAP-70 (Homo sapiens) (UniProt P43403); assay: Selectivity interaction (SelectScreen profiling (Invitrogen)) EUB0000607a ZAP70; details: at 2 µM
# T2 sequence (whole entry): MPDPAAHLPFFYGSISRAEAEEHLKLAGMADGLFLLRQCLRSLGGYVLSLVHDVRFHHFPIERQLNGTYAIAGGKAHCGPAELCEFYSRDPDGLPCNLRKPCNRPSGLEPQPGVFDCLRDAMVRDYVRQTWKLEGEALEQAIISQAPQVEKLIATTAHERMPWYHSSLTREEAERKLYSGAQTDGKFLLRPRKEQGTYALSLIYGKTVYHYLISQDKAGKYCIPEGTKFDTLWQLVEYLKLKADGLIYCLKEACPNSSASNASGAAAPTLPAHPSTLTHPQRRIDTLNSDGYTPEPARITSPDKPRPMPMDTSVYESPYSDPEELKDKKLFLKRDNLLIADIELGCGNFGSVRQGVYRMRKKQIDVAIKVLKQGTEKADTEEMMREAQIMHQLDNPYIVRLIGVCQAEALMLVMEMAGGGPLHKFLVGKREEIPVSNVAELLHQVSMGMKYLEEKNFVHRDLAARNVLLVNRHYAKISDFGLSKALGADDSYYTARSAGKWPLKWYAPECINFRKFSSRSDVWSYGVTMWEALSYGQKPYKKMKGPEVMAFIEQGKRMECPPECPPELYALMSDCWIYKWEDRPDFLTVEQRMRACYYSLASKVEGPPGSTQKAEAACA
# [5] = system: Fibroblast growth factor receptor 3 (Homo sapiens), P22607 [G697C]; assay: (§1) Selectivity interaction (KinomeScan (DiscoverX)) EUB0000595a FGFR3; details: at 10 µM
# Sequence of Fibroblast growth factor receptor 3 (Homo sapiens), P22607 [G697C] (P22607 whole entry G697C): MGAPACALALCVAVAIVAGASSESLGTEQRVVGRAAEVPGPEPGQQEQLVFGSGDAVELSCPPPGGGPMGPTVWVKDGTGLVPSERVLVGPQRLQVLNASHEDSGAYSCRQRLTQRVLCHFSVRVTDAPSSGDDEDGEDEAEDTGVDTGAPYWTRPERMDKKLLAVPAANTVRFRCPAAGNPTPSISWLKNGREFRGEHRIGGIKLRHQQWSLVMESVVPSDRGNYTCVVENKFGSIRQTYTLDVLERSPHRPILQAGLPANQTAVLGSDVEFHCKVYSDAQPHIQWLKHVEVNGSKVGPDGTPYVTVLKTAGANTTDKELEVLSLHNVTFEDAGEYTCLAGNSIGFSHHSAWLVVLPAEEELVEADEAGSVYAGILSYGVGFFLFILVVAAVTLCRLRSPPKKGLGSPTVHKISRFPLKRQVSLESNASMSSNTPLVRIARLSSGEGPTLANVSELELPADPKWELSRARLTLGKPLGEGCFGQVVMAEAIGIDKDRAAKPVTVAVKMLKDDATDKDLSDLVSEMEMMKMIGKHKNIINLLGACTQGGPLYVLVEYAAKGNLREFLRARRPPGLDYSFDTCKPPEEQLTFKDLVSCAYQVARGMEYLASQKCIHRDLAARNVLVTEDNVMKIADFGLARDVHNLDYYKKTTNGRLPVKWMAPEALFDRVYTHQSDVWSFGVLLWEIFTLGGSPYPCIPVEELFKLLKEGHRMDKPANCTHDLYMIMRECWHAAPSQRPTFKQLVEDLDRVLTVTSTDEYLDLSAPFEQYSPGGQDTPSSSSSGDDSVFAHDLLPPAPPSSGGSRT
# [6] = biological target: Fibroblast growth factor receptor 3 (Homo sapiens, UniProt P22607); assay: as §1; details: at 10 µM
# Sequence of Fibroblast growth factor receptor 3 (P22607 23-806 limits assumed): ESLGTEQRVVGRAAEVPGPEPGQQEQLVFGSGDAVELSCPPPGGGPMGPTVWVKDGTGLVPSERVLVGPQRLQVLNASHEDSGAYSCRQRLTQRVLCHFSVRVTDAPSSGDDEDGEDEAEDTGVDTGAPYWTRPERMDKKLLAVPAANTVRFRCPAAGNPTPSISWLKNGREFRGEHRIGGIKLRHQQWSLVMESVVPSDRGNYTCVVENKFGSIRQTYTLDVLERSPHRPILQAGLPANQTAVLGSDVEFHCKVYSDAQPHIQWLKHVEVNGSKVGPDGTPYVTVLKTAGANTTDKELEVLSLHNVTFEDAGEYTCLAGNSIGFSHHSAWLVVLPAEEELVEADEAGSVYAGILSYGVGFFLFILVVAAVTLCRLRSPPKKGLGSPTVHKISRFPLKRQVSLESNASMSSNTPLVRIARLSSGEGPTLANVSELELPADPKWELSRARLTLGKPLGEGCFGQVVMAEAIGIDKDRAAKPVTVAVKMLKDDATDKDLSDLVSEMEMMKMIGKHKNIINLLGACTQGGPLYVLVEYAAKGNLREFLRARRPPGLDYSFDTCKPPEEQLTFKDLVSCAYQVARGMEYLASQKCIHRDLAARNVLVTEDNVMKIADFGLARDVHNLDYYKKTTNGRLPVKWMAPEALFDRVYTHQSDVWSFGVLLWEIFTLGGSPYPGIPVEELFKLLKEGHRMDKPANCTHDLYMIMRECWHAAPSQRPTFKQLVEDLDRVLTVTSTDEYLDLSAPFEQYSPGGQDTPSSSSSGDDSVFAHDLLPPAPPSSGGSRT
# [7] = biological target: T3, Serine/threonine-protein kinase 3 (Homo sapiens) (UniProt Q13188); assay: Selectivity interaction (ActivX KiNativ screen (kinase selectivity in THP-1 cell lysates)) EUB0000639a STK3; format: subcellular; details: lysate, at 1 µM
# T3 sequence (whole entry): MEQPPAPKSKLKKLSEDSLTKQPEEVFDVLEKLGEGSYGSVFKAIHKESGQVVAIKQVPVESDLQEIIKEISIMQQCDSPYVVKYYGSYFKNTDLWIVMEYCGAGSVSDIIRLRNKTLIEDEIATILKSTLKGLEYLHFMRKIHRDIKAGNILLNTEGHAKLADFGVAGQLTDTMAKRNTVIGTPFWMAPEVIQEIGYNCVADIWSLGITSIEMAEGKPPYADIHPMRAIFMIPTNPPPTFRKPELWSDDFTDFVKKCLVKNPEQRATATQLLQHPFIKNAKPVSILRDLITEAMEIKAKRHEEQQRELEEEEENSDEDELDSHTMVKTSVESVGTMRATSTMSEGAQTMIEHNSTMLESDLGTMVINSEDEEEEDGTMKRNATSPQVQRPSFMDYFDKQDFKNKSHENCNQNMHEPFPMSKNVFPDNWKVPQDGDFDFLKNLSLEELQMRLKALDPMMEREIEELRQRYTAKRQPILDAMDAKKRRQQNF
# [8] = biological target: Phosphatidylinositol 3-kinase catalytic subunit type 3 (Homo sapiens, UniProt Q8NEB9); assay: Selectivity interaction (KinomeScan (DiscoverX)) EUB0000229b PIK3C3; details: at 10 µM
# Sequence of Phosphatidylinositol 3-kinase catalytic subunit type 3 (Q8NEB9 whole entry): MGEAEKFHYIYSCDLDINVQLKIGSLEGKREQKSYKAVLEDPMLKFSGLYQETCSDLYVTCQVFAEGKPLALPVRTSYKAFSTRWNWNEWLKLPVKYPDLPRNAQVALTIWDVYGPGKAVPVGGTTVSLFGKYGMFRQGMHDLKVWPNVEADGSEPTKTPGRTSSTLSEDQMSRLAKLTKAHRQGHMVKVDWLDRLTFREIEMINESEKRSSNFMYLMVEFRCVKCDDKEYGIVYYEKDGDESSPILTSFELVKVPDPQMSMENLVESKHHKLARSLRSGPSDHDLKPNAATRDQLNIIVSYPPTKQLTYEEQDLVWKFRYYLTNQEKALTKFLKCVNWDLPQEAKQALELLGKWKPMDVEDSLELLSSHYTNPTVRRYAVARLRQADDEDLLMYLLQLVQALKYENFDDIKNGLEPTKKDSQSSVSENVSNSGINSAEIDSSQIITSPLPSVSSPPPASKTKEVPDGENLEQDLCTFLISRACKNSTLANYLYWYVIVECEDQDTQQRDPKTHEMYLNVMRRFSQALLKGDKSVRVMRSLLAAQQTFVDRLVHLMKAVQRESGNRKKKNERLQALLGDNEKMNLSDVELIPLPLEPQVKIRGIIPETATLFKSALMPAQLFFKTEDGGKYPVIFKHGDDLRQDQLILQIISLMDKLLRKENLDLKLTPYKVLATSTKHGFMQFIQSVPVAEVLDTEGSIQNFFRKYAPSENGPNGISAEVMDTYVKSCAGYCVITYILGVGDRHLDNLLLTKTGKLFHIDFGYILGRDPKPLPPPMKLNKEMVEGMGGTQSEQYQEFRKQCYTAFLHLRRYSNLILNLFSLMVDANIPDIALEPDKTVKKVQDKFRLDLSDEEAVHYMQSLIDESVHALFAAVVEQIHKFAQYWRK
# [9] = system: Epidermal growth factor receptor (Homo sapiens), P00533 [UNDEFINED MUTATION]; assay: Selectivity interaction (KinomeScan (DiscoverX)) EUB0001049a EGFR; details: at 1 µM
# Sequence of Epidermal growth factor receptor (Homo sapiens), P00533 [UNDEFINED MUTATION] (P00533 whole entry, looked up, change not shown): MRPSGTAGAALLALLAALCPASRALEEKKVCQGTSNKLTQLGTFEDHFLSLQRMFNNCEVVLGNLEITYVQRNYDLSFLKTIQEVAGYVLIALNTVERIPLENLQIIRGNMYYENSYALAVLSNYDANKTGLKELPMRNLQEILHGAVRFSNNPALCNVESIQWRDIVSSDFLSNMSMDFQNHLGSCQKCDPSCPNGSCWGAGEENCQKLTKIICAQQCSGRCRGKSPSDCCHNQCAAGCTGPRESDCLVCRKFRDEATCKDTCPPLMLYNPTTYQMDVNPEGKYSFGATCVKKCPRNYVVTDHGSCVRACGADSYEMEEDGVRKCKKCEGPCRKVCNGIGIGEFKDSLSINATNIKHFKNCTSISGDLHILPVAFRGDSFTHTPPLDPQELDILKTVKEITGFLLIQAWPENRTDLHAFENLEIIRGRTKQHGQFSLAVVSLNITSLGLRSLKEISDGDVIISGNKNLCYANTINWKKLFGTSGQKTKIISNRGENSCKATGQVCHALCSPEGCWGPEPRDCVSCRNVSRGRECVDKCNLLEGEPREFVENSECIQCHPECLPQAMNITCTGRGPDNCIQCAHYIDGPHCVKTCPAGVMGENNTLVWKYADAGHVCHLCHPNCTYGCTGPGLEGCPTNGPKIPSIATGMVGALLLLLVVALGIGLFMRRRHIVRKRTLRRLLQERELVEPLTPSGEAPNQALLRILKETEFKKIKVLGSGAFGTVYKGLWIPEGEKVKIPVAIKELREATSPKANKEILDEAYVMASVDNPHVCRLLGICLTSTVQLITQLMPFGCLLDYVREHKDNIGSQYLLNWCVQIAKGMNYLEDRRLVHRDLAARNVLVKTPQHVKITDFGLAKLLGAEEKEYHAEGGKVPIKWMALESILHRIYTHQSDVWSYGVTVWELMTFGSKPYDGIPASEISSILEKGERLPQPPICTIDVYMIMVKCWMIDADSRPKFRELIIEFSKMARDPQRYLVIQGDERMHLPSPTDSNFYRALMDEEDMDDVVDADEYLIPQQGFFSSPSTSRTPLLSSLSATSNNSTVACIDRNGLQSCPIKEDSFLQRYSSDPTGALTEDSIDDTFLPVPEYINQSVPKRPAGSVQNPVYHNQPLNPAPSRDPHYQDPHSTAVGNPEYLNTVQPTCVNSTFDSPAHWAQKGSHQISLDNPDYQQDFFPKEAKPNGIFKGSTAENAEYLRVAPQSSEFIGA
# [10] = biological target: Eukaryotic translation initiation factor 2-alpha kinase 1 (Homo sapiens) (UniProt Q9BQI3); assay: Selectivity interaction (KinomeScan (DiscoverX)) EUB0000092b EIF2AK1; details: at 10 µM
# Sequence of Eukaryotic translation initiation factor 2-alpha kinase 1 (Homo sapiens) (Q9BQI3 whole entry): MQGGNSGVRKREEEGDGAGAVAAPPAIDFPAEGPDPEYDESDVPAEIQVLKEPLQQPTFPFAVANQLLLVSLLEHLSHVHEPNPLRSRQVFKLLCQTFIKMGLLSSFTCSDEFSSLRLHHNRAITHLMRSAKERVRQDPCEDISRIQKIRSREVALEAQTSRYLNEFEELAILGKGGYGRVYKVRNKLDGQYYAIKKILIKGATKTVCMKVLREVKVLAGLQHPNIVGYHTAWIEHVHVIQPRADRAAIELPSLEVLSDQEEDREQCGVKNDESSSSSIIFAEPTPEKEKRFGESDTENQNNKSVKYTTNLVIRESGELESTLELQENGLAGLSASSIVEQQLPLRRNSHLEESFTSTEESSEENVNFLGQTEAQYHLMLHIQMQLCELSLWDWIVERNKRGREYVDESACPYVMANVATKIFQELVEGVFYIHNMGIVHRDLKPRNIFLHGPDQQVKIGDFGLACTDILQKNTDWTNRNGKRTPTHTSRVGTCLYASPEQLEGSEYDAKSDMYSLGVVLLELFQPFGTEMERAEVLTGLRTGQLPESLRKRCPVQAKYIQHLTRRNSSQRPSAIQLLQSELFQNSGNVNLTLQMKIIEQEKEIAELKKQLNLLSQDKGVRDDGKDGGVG
# [11] = biological target: T4, Serine/threonine-protein kinase BRSK1 (Homo sapiens) (UniProt Q8TDC3); assay: Selectivity interaction (KinomeScan (DiscoverX)) EUB0000092b BRSK1; details: at 10 µM
# T4 sequence (whole entry): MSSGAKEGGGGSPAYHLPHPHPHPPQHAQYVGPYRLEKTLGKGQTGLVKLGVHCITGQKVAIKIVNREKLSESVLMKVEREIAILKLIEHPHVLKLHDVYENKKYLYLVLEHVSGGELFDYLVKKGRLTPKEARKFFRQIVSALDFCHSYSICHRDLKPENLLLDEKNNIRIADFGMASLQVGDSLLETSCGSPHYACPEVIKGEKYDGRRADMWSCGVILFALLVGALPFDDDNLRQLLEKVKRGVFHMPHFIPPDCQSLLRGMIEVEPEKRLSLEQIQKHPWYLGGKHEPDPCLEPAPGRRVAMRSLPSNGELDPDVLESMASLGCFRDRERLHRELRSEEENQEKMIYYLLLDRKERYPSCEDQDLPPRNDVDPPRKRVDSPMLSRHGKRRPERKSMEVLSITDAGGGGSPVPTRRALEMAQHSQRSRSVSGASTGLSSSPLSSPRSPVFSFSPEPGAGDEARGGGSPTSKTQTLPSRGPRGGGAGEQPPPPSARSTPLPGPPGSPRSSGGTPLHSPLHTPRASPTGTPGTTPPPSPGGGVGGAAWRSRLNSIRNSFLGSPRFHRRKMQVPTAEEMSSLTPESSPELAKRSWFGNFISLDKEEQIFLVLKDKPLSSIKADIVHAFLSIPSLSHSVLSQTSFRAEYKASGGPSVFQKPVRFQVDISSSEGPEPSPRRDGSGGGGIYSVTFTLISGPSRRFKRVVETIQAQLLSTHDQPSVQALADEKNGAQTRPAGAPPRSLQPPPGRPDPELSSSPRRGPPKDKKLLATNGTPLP
# Sequence of Cyclin-dependent kinase 7 (P50613 whole entry): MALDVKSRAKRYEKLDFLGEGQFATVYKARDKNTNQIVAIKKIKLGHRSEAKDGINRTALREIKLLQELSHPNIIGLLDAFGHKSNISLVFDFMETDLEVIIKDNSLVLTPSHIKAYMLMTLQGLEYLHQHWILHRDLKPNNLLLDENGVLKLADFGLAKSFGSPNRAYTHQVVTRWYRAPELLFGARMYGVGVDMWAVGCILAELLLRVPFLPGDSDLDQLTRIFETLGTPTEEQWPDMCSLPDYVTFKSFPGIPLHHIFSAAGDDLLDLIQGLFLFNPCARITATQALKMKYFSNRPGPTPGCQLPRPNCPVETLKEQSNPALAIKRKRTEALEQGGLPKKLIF
compound,measurement,setting,value
CN(C)C/C=C/C(=O)Nc1ccc(C(=O)N2CCCC(Nc3ncc(Cl)c(-c4c[nH]c5ccccc45)n3)C2)cc1 (stereo unspecified),% of control,[1],28%
CN(C)CCOc1ccc(-c2nc(-c3ccncc3)c(-c3ccc4c(c3)CC/C4=N\O)[nH]2)cc1,% of control,[2],86%
CNC(=O)Nc1ccc(-c2nc(N3CC4CCC(C3)O4)c3cnn(C4CCC5(CC4)OCCO5)c3n2)cc1,% of control,[3],96%
same,% of inhibition,[4],7%
COCC(=O)NC/C=C/c1ccc2ncnc(Nc3ccc(Oc4ccc(C)nc4)c(C)c3)c2c1 [CP-724714],% of control,[5],90%
same,% of control,[6],100%
CC[C@@H]1[C@H](F)C(=O)N[C@@H]1COc1nccc2cc(C(N)=O)c(OC)cc12 [ZIMLOVISERTIB],% of inhibition,[7],-8%
COc1cc(N(C)c2ccnc3ccc(C(F)(F)F)cc23)cc(OC)c1OC,% binding,[8],93%
COc1cc(Nc2nc(C)cc(-c3cnn4nc(OC)ccc34)n2)cc(C(F)(F)F)c1,% of control,[9],77%
CCC(=O)N1CCN(c2ccc(-n3c(=O)ccc4cnc5ccc(-c6cnc7ccccc7c6)cc5c43)cc2C(F)(F)F)CC1,% of control,[10],57%
same,% of control,[11],78%
